Test results: US8247423B2, “Methods and compositions for the treatment of cancer, tumors, and tumor-related disorders” (Tragara Pharmaceuticals, Inc., priority 2007, dated 2012)

Assay: clinical
Conditions: human, in vivo, po
Description: Methods: Subjects with recurrent or metastatic NSCLC were treated with erlotinib (150 mg/day PO) and escalating doses of 2-(4-ethoxyphenyl)-4-methyl-1-(4-sulfamoylphenyl)-pyrrole (100-1200 mg/day PO). Pharmacokinetics for 2-(4-ethoxyphenyl)-4-methyl-1-(4-sulfamoylphenyl)-pyrrole and erlotinib were evaluated.

## CCOc1ccc(-c2cc(C)cn2-c2ccc(S(N)(=O)=O)cc2)cc1
  Tmax: 2 h
  half-life: 11.8 h
